Drawing on ChEMBL document CHEMBL5584262, “Plakevulin A induces apoptosis and suppresses IL-6-induced STAT3 activation in HL60 cells” (Bioorg Med Chem Lett, 2024), this text covers Activity, IC50 and inhibition for 5 compounds.

Activity calls are given as the source filed them. No cut-off for these calls is given here. *1 amine or outer side, *2 acyl side, *3 side chain or, on linkers, in order; H or OH if unused. Where a SMILES comes first, the peptide text is derived from it. Bridges are numbered along the chain shown (N, C = ends). Roman numbers before positions name the chains, in order. [ ]: non-standard residue; d: D form. Actinocin(9to1) = Cc1c2oc3c(C)ccc(C(=O)[*:1])c3nc-2c(C(=O)[*:2])c(N)c1=O; NMeV = CN[C@H](C(=O)O)C(C)C; Sar = CNCC(=O)O A value given as a limit tells only on which side of the number the result lay.

Experiment [1] relates to HL-60. Description: Downregulation of IL-6-induced STAT3 phosphorylation in human HL-60 cells pretreated for 24 hrs followed by IL-6 stimulation by Western blot analysis. It counts as functional, cell-based. On the technique in general: A western blot detects proteins with antibodies after separation by electrophoresis.
For experiment [2], the system named is HL-60. Description: Cytotoxicity against human HL-60 cells assessed as inhibition of cell viability incubated for 48 hrs by WST-8 assay. It counts as functional, cell-based. The following applies: HL-60, 48 h. Background: Formazan colour is commonly taken as a measure of viable cells.
Experiment [3] concerns HL-60. Nature of the experiment: Induction of apoptosis in human HL-60 cells assessed as DNA fragmentation at 5 uM treated for 24 hrs by agarose gel electrophoresis. It counts as functional, cell-based.
The test system of experiment [4] is HL-60. Nature of the experiment: Induction of apoptosis in Z-VAD-fmk-treated human HL-60 cells assessed as DNA fragmentation at 5 uM treated for 24 hrs by agarose gel electrophoresis. In kind it is functional, cell-based.
Experiment [5] relates to HL-60. Nature of the experiment: Induction of apoptosis in Z-VAD-fmk-treated human HL-60 cells assessed as inhibition of caspase-3 activation at 5 uM treated for 24 hrs by Ac-DEVD-MCA substrate based analysis. It counts as functional, cell-based.
Experiment [6] has as its system HL-60. Nature of the experiment: Cytotoxicity against human HL-60 cells assessed as inhibition of cell viability incubated for 24 hrs by MTT assay. In kind it is functional, cell-based. The following applies: HL-60, 24 h.
For experiment [7], the system named is HeLa. Nature of the experiment: Cytotoxicity against human HeLa cells assessed as inhibition of cell viability incubated for 24 hrs by MTT assay. It counts as functional, cell-based.
Experiment [8] relates to MC3T3-E1. Nature of the experiment: Cytotoxicity against mouse MC3T3-E1 cells assessed as inhibition of cell viability incubated for 24 hrs by MTT assay. In kind it is functional, cell-based. As to conditions: MC3T3-E1, 24 h.
In experiment [9] the test system is MRC5. Description: Cytotoxicity against human MRC5 cells assessed as inhibition of cell viability incubated for 24 hrs by MTT assay. In kind it is functional, cell-based. As to conditions: MRC5, 24 h.
Experiment [10] can be described thus: Inhibition of calf DNA polymerase alpha using DNA as substrate incubated for 60 mins in presence of […]. Further details: species or system Bos taurus.
Experiment [11] deals with DNA polymerase beta (Rattus norvegicus, UniProt P06766). Description: Inhibition of rat DNA polymerase beta using DNA as substrate incubated for 60 mins in presence of […].
Experiment [12] concerns the target T1, Peroxisomal multifunctional enzyme type 2 (Homo sapiens) (UniProt P51659).
T1 sequence (whole entry): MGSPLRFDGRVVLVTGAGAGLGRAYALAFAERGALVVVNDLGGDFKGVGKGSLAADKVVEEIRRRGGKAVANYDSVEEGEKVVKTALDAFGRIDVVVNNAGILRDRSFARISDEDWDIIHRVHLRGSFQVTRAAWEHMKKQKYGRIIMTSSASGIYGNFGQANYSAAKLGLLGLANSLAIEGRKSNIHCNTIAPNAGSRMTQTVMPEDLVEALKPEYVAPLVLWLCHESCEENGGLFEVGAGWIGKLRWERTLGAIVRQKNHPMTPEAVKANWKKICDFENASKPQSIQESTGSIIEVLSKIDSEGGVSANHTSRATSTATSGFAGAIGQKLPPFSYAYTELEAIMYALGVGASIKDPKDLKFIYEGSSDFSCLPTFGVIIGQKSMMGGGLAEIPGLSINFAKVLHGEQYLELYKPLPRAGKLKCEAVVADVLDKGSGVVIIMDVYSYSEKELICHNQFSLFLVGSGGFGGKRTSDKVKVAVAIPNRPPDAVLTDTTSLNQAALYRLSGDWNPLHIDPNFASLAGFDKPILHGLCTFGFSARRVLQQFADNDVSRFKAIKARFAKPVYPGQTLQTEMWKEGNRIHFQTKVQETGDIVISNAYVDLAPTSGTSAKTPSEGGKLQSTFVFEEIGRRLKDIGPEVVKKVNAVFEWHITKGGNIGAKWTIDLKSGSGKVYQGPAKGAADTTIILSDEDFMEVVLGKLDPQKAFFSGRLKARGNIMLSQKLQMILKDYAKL
Description: Binding affinity to HSD17B4 in human HL-60 cell lysate by pull down assay. In kind it is subcellular.

The test system of experiment [13] is HL-60. Description: Induction of apoptosis in human HL-60 cells assessed as DNA fragmentation at 1 uM treated for 24 hrs by agarose gel electrophoresis. It counts as functional, cell-based.
In experiment [14] the test system is HL-60. Nature of the experiment: Induction of apoptosis in Z-VAD-fmk-treated human HL-60 cells assessed as DNA fragmentation at 1 uM treated for 24 hrs by agarose gel electrophoresis. It counts as functional, cell-based.
Experiment [15] has as its target T1, Peroxisomal multifunctional enzyme type 2 (Homo sapiens). Nature of the experiment: Binding affinity to HSD17B4 in human HL-60 cell lysate by Western blot analysis. It counts as subcellular.

Regarding `CO/C=C(/C(=O)OC)c1ccccc1COc1cc(C(F)(F)F)nc(OC(C)C)n1`, the Activity entry in [1] was “Dose-Dependent Effect”.

Broadly, the IC50 is the concentration needed to halve the response being measured. As for `CCCCCCCCCCCCCCCC[C@]1(O)C=C[C@H](O)[C@H]1C(=O)OC` [PLAKEVULIN A], the IC50 was 2.63 µM in [2]; 2.02 µM in experiment [6]; 11.5 µM in experiment [7]; 12.4 µM in experiment [8]; above 15 µM in experiment [9]; 137 µM in experiment [10]. In addition, the IC50 in [11] is 189 µM. For the same compound, the outcome in experiment [3] was Active. Besides, the outcome in experiment [4] was inactive. Further, in experiment [5], the inhibition result was “Active”. Further, the Activity result in [1] was “Dose-Dependent Effect”.

For the compound `O=C(O)CCCCCNC(=O)CCCC[C@@H]1SC[C@@H]2NC(=O)N[C@@H]21`, the result in [12] was inactive.

As to `Cc1c2oc3c(C)ccc(C(=O)N[C@@H]4C(=O)N[C@H](C(C)C)C(=O)N5CCC[C@H]5C(=O)N(C)CC(=O)N(C)[C@@H](C(C)C)C(=O)O[C@@H]4C)c3nc-2c(C(=O)N[C@@H]2C(=O)N[C@H](C(C)C)C(=O)N3CCC[C@H]3C(=O)N(C)CC(=O)N(C)[C@@H](C(C)C)C(=O)O[C@@H]2C)c(N)c1=O` (I: T[dV]P[Sar][NMeV] / II: T[dV]P[Sar][NMeV]; ester I:1-I:C, II:1-II:C; linker I:N-II:N via Actinocin(9to1)), the outcome in experiment [13] was Active. In experiment [14], the outcome was inactive.

Turning to `CCCCCCCCCCCCCCCC[C@]1(O)C=C[C@H](OC(=O)CCCCCNC(=O)CCCC[C@@H]2SC[C@@H]3NC(=O)N[C@@H]32)[C@H]1C(=O)OC`, the IC50 in experiment [2] is 5.76 µM. Moreover, the outcome in experiment [15] and in experiment [12] was Active.
